Source: PMC4256349, “A Conformational Sampling Model for Radical Catalysis in Pyridoxal Phosphate- and Cobalamin-dependent Enzymes” (The Journal of Biological Chemistry, 2014)

How the values were obtained:
[1] = biological target: T1, ornithine 4,5-aminomutase (OAM) (Acetoanaerobium sticklandii, UniProt E3PY95); test: UV-visible spectra, external aldimine formation; type: binding; design: gene oraE; C-terminal His6 (pET-OAMH2), expressed in E. coli; purified apoenzyme reconstituted with PLP and AdoCbl; OAM dimer printed (alpha2beta2 known); settings: aerobic, pH 8.5, 25 °C, 5 mM; inhibitor, covalent (PLP external aldimine)
T1 sequence (E3PY95 1-740): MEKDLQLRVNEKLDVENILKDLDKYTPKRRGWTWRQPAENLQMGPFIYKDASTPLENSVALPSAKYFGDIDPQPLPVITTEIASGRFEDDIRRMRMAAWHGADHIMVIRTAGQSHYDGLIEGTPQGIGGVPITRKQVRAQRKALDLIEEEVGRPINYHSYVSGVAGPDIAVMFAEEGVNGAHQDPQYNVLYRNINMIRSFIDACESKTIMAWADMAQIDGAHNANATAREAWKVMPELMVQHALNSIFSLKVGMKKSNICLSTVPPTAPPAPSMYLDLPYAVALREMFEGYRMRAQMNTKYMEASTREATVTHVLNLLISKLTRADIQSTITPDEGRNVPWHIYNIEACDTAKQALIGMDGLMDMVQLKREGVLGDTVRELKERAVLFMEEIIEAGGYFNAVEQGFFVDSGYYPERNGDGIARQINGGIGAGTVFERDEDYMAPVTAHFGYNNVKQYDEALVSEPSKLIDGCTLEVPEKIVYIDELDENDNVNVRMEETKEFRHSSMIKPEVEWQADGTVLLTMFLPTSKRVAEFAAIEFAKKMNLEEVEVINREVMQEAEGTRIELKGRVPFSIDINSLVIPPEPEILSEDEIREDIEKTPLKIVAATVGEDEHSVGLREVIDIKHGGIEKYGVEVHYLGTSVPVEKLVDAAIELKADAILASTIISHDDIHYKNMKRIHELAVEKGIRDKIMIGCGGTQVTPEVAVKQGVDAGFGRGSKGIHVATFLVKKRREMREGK
T1 sequence (E3PY96 1-121 partner): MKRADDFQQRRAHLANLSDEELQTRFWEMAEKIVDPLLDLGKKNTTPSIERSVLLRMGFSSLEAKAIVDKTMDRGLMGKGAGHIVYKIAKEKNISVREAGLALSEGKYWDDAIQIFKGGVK

[2] = biological target: T1, ornithine 4,5-aminomutase (OAM); design: gene oraE; settings: anaerobic, pH 8.5, 25 °C; equimolar with apoenzyme; covalent (Lys629)
[3] = biological target: T1, ornithine 4,5-aminomutase (OAM); test: UV-visible, stopped flow and EPR; external aldimine and Co-C homolysis; type: binding; design: gene oraE; C-terminal His6 (pET-OAMH2), expressed in E. coli; purified apoenzyme reconstituted with PLP and AdoCbl; OAM dimer printed (alpha2beta2 known); settings: anaerobic, pH 8.5, 25 °C, 2.5 mM; inhibitor, covalent (PLP external aldimine)

NCC(N)C(=O)O (racemic) [DL-2,3-diaminopropanoic acid]
UV-visible spectra, external aldimine formation [1]: does not induce AdoCbl bond homolysis but does lead to external aldimine formation

Cc1ncc(COP(=O)(O)O)c(C=O)c1O [PLP]
UV-visible spectra, transimination at 416 nm [2]: transimination induced by the D-ornithine binding with PLP

NCCC(N)C(=O)O (racemic) [DL-2,4-diaminobutyric acid]
UV-visible, stopped flow and EPR; external aldimine and Co-C homolysis [3]: transimination induced by the DAB binding with PLP
